Laboratory results from patent US20120329879A1, “BETA-ADRENERGIC RECEPTOR AGONISTS AND USES THEREOF” (THE UNIVERSITY OF TENNESSEE RESEARCH FOUNDATION, priority 2010, published 2012).
Several values for one entry are separate records, joined by “and”; a condition that tells them apart may be missing. Identical values can stand only once. Entries after “also recorded” stand apart in the source; their conditions may differ.

Experiments:
PKA = PKA ELISA of retinal lysates after Compound 2 eye drops in diabetic rats; format: in vivo, rat; conditions: topical 1 mM once daily for 4 days, compared with other doses (1 mM to 20 mM), hydrochloride
Description: To determine whether topical application of Compound 2 could reach the retina and elicit response, dose and time course studies were performed. For those studies, animals were made diabetic for 2 months using STZ. For 4 days, rats received a variety of doses of either Compound 2 (1 mM to 20 mM) or PBS once or twice each day. After the 4 days of eye drop treatment to both eyes, the diabetic and control animals were euthanized. Since beta-adrenergic receptor stimulation should increase cyclic adenosine monophosphase production and activate protein kinase A, retinal lysates were processed for a PKA ELISA (MesaCup PKA ELISA, Upstate, Temecula, Calif.). […] At 2 or 8 months, retinas were assessed for diabetes-induced degeneration of retinal cell numbers and retinal thickness (2 months) and for degenerate capillaries (8 months). TNF activity, cleaved caspase 3 and phosphorylation of insulin receptor beta and Akt were assessed at both time points. […]

left ventricle = experiment: Heart left ventricle sections and collagen staining in type I diabetic rats; format: in vivo, rat; conditions: type I diabetic rats treated daily with 1 mM
From the text: Staining is for collagen intensity (FIG. 11B), which is increased in diabetes. Analyses on the rats were done for acute changes (8 weeks of diabetes, 45 rats) and chronic changes (8 months of diabetes, 45 rats). In addition to all measurements on the retina, tissue sections of the heart were taken at 8 weeks and 8 months to insure that there is no hypertrophy of the ventricles due to the drug. A Western blot for myosin light chain, a surrogate marker of cardiovascular hypertrophy was also performed. Each month, all rats receive 2 analyses of visual function, electroretinogram (ERG) and live retinal imaging using Optical Coherence […] (OCT). Retinal thickness and live retinal imaging were assessed using rodent OCT. This technology allows for non-invasive visualization of each layer of the retina for multiple testing of the same animal.

[1] = Tissue distribution of Compound 2 in heart, lung and spleen after topical delivery; format: in vivo; conditions: rat, 24 hours after topical 10 mg/kg, single animals 1-5

SMILES: COc1cc(CCNC[C@H](O)c2ccc(O)c(O)c2)cc(OC)c1OC.Cl (single isomer, unassigned) [Compound 2, 4-[1-hydroxy-2-(1-ethylamino-3-,4-,5-trimethoxyphenyl)ethyl]benzene-1,2-diol hydrochloride]
- PKA activity in the retina (PKA): showed the highest increase in PKA activity; also recorded: significantly increased PKA activity in the retina
- left ventricle compared to untreated diabetic rats (left ventricle): no difference in the left ventricle
- concentration in Heart [1]: <400 ng/g
- concentration in Lung ([1]; hydrochloride): 463.43 ng/g and 2262.08 ng/g and 2862.22 ng/g and 2060.08 ng/g and 535.24 ng/g
- concentration in Spleen ([1]; hydrochloride): 12134.03 ng/g and 8393.8 ng/g and 7061.2 ng/g and 4544.4 ng/g and 34331.0 ng/g
- concentration at 24 h ([1]; heart, topical, 10 mg/kg): < 400 ng/g
